# Measurements from patent publication US20190313934A1, “DEVICE AND SYSTEM FOR MONITORING AND TREATING MUSCLE TENSION-RELATED MEDICAL CONDITIONS” (Biotrak Health, Inc., priority 2016, published 2019).
# How the values were obtained:
# [1] = Evaluation of analgesics, alone or with the prototype Halo system, on a human subject with recurring headaches; assay type: in vivo; conditions: one subject
# Protocol: The subject was a person in New York City with a history of recurring headaches. Tests were conducted in three stages between December 2016 and March 2017. In the first stage the subject used various over-the-counter analgesics at recommended dosages to manage headache symptoms (Sessions 1 and 2). Conditions were self-assessed prior to drug administration according to a standard headache scale, and then qualitatively reassessed for the extent of relief. In the second stage, the subject took an analgesic at the same time of using a prototype Halo™ system for 5 min (Session 3). In the third stage the subject used the prototype Halo™ system alone for a duration of 10 min on three occasions (Sessions 4-6).
# [2] = diazepam combined with EMG biofeedback; chronic anxious patients; cited from earlier work
smiles,measurement,setting,value
CC(=O)Oc1ccccc1C(=O)O [aspirin],Relief,"[1]; over-the-counter analgesic alone at recommended dosage, qualitative self-assessment of headache relief",Moderate
CN1C(=O)CN=C(c2ccccc2)c2cc(Cl)ccc21 [diazepam],Effect on muscular tension,[2],effectively reduced muscular tension
COc1ccc2cc([C@H](C)C(=O)O)ccc2c1 [naproxen],Relief,"[1]; analgesic taken at the same time as using prototype Halo system for 5 min, qualitative self-assessment",Complete
